Measurements reported in US20230404989A1, “GRK2 INHIBITION BY PAROXETINE AMELIORATES OSTEOARTHRITIS” (THE PENN STATE RESEARCH FOUNDATION, priority 2020, published 2023).

Assays:
Format in all cases: in vivo, mouse
[1] = tested on: ADAMTS5, MMP13, Aggrecan Neo, aggrecan in tibial articular cartilage; test: IF staining of tibial articular cartilage of drug-treated DMM mice; conditions: for aggrecan expression (IF staining, whole tibial articular surface): daily ip week 8 to 12, versus vehicle; for ADAMTS5 expression (IF staining, uncalcified cartilage) / Aggrecan Neo expression (IF staining, uncalcified cartilage) / MMP13 expression (IF staining, uncalcified cartilage): daily treatment week 8 to 12
Protocol: Drug treatment studies: In twelve-week old male wild type C57BL/6 mice that received DMM surgeries, vehicle (PBS), paroxetine (5 mg/kg/day), fluoxetine (5 mg/kg/day), gallein (10 mg/kg/day) or indomethacin (2.5 mg/kg/day) were administered daily by ip injection. Drug treatment was initiated 8 weeks following DMM to determine the role of GRK2 signaling in the progression of OA. Paraffin sections were deparaffinized in three changes of xylene for five minutes each, rehydrated in ethanol (two changes of 100% ethanol, followed by two changes of 95% ethanol, followed by one change of 70% ethanol) and rinsed twice in deionized water. Antigen retrieval was performed for 30 minutes at 37° C. using 0.4% pepsin (Sigma P-7000) in 0.1M hydrochloric acid (HCl) and was followed by permeabilization for 30 minutes at room temperature using Triton X in tris buffered saline (TBS). Sections were then blocked for 1 hour at room temperature in 10% normal goat serum in 1×TBS. Tissue sections were incubated overnight at 4° C. with the rabbit anti-mouse primary antibody specific for the target protein (detailed in Table 1). Following three 5-minute washes in 1×TBS, slides were incubated for 1 hour at room temperature with biotinylated goat anti-rabbit secondary antibody (Life Technologies, Waltham, MA, USA), washed again with 3 changes of 1×TBS and incubated for 1 hour at room temperature with Alexa fluor 647 Streptavidin. Finally, slides were washed with three changes of 1×TBS for 5 minutes each, followed by one wash with 1×TBS with tween 20 (TBST), and a final 5-minute wash in 1×TBS. Mounting and nuclear staining was performed using ProLong™ Gold antifade reagent with DAPI (Invitrogen, Waltham, MA, USA).

[2] = tested on: DMM mice; test: Micro-CT assessment of knee joint and subchondral bone in DMM mice; conditions: daily ip week 8 to 12
Protocol: Drug treatment studies: In twelve-week old male wild type C57BL/6 mice that received DMM surgeries, vehicle (PBS), paroxetine (5 mg/kg/day), fluoxetine (5 mg/kg/day), gallein (10 mg/kg/day) or indomethacin (2.5 mg/kg/day) were administered daily by ip injection. Drug treatment was initiated 8 weeks following DMM to determine the role of GRK2 signaling in the progression of OA. Prior to histologic processing, harvested knee joints were evaluated via micro-CT using a Scanco vivaCT40 scanner with a 55 kVp source as we have previously described. Joints were scanned at a resolution of 10.5 μm. General 3-dimensional images were obtained with simple segmentation at a Scanco threshold of 260, which was determined on inspection of the first specimen. This translates to a linear attenuation coefficient of 2.080 cm-1. Knee analysis starts by locating the highest section of the tibial plateau and defining that as the center point. All bone is captured 100 slices in each direction from the center point. The patella and fibula, if present in that region, are excluded. The fabellae are considered part of the knee and are included. A threshold of 260 (2.080 cm′) is used to analyze bone volume and microarchitecture. Tibia subchondral analysis begins by starting at the knee and proceeding distally until the cortical shell is penetrated. All non-cortical bone is included, both solid and trabecular. Osteophytes were identified as protrusions and counted using cross-sectional images of the 3-dimensional stacks. Subchondral plate thickness was calculated by determining the number of cross-sections forming the subchondral plate and multiplying it by section thickness (C. Huesa, Annals of the rheumatic diseases, 75, 1989-1997 (2016)).

[3] = tested on: DMM mice; test: Anterior femoral synovial membrane thickness in DMM mice; conditions: daily ip week 8 to 12, versus vehicle
Protocol: Drug treatment studies: In twelve-week old male wild type C57BL/6 mice that received DMM surgeries, vehicle (PBS), paroxetine (5 mg/kg/day), fluoxetine (5 mg/kg/day), gallein (10 mg/kg/day) or indomethacin (2.5 mg/kg/day) were administered daily by ip injection. Drug treatment was initiated 8 weeks following DMM to determine the role of GRK2 signaling in the progression of OA. Using Safranin-O/Fast Green-stained sections, the OsteoMetrics system was used to quantify the above parameters on three sections from representative levels (50 μm apart) of the medial compartment of the joint for each sample. Live images of the center of the knee joint were collected through an Olympus microscope (10× objective) outfitted with a camera, a stylus was used to trace the regions of interest (ROIs). A blinded observer quantified uncalcified articular cartilage area, total chondrocyte number and matrix-producing chondrocyte number using the built-in area calculation algorithms and quantification functions of the OsteoMeasure® system. […] The calcified cartilage was determined with a line drawn along the tide mark, which is the naturally occurring line separating the calcified and uncalcified regions of the articular cartilage. A second line was drawn at the chondro-osseous junction where the calcified cartilage meets the subchondral bone. The uncalcified cartilage area was determined by subtracting the calcified cartilage area from the total area of cartilage. Total chondrocyte number and matrix-producing chondrocyte number were counted within the uncalcified cartilage region using count functions within the histomorphometry system. Matrix-producing chondrocytes were counted based on the region of Safranin-O staining within the extracellular matrix surrounding the articular chondrocyte, indicating anabolic signaling to maintain matrix homeostasis. Similarly, the anterior femoral synovial thickness was measured using OsteoMeasure® software. Synovial membrane thickness extending from anterior horn of the medial meniscus to the femur was determined by drawing a line from the inner insertion point on the femur towards the attachment on the meniscus. A second line was drawn from the outer insertion of the femur towards the attachment to the meniscus. The synovial thickness was calculated by dividing total synovial area by synovial perimeter.

| Structure (SMILES) | aggrecan expression (IF staining, whole tibial articular surface) [1] | ADAMTS5 expression (IF staining, uncalcified cartilage) [1] | Aggrecan Neo expression (IF staining, uncalcified cartilage) [1] | MMP13 expression (IF staining, uncalcified cartilage) [1] | higher osteophyte number [2] | higher subchondral bone mineral density (BMD) [2] | higher subchondral bone volume density (BV/TV) [2] | higher subchondral plate thickness [2] | higher subchondral trabecular thickness (Tb.Th) [2] | increased knee bone volume (BV) [2] | increased knee total volume (TV) [2] | synovial membrane thickness [3] |
| --- | --- | --- | --- | --- | --- | --- | --- | --- | --- | --- | --- | --- |
| O=C1OC2(c3ccccc31)c1ccc(O)c(O)c1Oc1c2ccc(O)c1O [gallein] | enhanced | significantly decreased | significantly decreased | significantly decreased | alleviated | alleviated | alleviated | alleviated | alleviated | ameliorated | ameliorated | as effective as indomethacin |
| Fc1ccc([C@@H]2CCNC[C@H]2COc2ccc3c(c2)OCO3)cc1 [paroxetine] | enhanced | significantly decreased | significantly decreased | significantly decreased | alleviated | alleviated | alleviated | alleviated | alleviated | ameliorated | ameliorated | as effective as indomethacin |
